Data reported in patent publication US20260000496A1, “MATERIALS AND METHODS FOR DRUG-INDUCED GINGIVAL OVERGROWTH” (Optimed Technology, Inc., priority 2019, published 2026).

Assays:
[1] = test system: TGF-β secreted by HOF cells; test: TGF-β ELISA in Human Oral Fibroblast cells; assay type: cell-based; conditions: HOF treated with conditioned media from Oral Keratinocytes
Protocol: Cell Culture. Normal human oral keratinocytes (NOKSI) and fibroblast (HOF) cells were maintained in Dulbecco […] Eagle's medium (Sigma-Aldrich, St. Louis, MO, USA) supplemented with 10% fetal bovine serum (Atlas Bio-logicals, Fort Collins, CO, USA) and 100 units/mL penicillin and 100 μg/mL streptomycin (LifeTechnologies, Carlsbad, CA, USA). Cells were grown in incubator at 37° C. in a humidified chamber with 5% CO2.
Enzyme linked immunosorbent assay (ELISA). ELISA was conducted with a mouse TNF-α ELISA Kit (PeproTech, USA) and TGF-β Emax ImmunoAssay System (Promega USA) to detect the TNF-α and TGF-β respectively. After normalization of the total cells or tissue protein lysates, 20 μg protein of each sample was used for the detection of TNF-α or TGF-β. ELISA was performed according to the manufacturers' instructions. For TNF-α, 100 ng/100 μl of capture antibody was added to each well of 96 well assay plate and incubated for overnight at room temperature. Blocking buffer of 200 μl per well were added to each well and incubated for 1 hour at room temperature. […] Optical absorbing values were read at 405 and 450 nm and corrected by 650 nm. […] TMB One Solution was added for 15 minutes and the reaction were stopped using 100 μl of 1N hydrochloric acid and the absorbance at 450 nm were recorded on a plate reader. Data were analyzed using excel software. […]

[2] = test system: phospho-p65; test: Mice study #2: phospho-p65 immunoblotting of gingival samples; assay type: in vivo, C57BL/6 mice; conditions: pattern as for Myd88 (disease higher than control and treatment)
Protocol: Western blot analysis. Cells were seeded in 60 mm plates with a density of 5×10^5 cells per plate and washed briefly with Dulbecco's phosphate-buffered saline (Gibco, Waltham, MA, USA). Whole cell lysates were prepared using RIPA lysis buffer containing protease inhibitor cocktail (Sigma-Aldrich). Total protein concentration was determined using the BCA reagent (Pierce, Waltham, MA, USA). 20 μg of total protein were resolved on sodium dodecyl sulfate-polyacrylamide gel electrophoresis and transferred to polyvinylidenedifluoride membrane and immunoblotted. The blots were incubated for 1 h in 1% bovine serum albumin (BSA) (Sigma-Aldrich) to block the non-specific bindings followed by over-night incubation in primary antibodies (MyD88 and pP65 from Cell Signaling Technology, and human LITAF ThermoFisher Sigma) at 4° C. on shaker. Next day, blots were washed for three times (10 min each) in Tris-buffered saline containing 1% Tween20 (TBST) followed by incubation with secondary antibody (Goat anti-rabbit IgG HRP) with 1:10,000 dilution for 1 h. […] The band intensities were quantified using software ImageJ (NIH, USA) and relative protein levels were normalized by β-actin (Cell Signaling). […] The band intensities were measured by the software ImageJ (NIH, USA), and relative protein levels were normalized by β-actin.

Question: With Nc1nc2ncc(CNc3ccc(C(=O)N[C@@H](CCC(=O)O)C(=O)O)cc3)nc2c(=O)[nH]1 [folic acid] as the compound, how does the “amount of TGF-β secreted by HOF cells” value [1] read?
Answer: The value was “reduce TGF-β expression”.

Question: What about the “phospho p65 expression, pattern across groups” value [2] of the same compound?
Answer: Its value is “a similar pattern”.
